Measured values reported in patent US9403829B2, “Pharmaceutical compositions of 7-(6-(2-hydroxypropan-2-yl)pyridin-3-yl)-1-((trans)-4-methoxycyclohexyl)-3,4-dihydropyrazino [2,3-b]pyrazin-2(1H)-one, a solid form thereof and methods of their use” (Signal Pharmaceuticals, LLC, priority 2011, dated 2016).
Where two headings read alike, the source gives them in different places.

Experiments:
[1] = Phase 1 food effect study (Part 2), single 20-mg oral dose of Compound A tablet, fed vs fasted; format: in vivo, human; details: for CL/F / AUC(0-inf) / Cmax / half-life / AUC(0-t) / Vd/F: geometric mean; for Tmax / AUC(0-inf) / Cmax / half-life / AUC(0-t) / Vd/F: male, human, plasma, 20 mg; for AUC(0-t): read-out: AUC0-24; for Vd/F: read-out: Vz/F
Method: The primary objectives of this study are: to characterize the biotransformation and excretion of Compound A following a single 20 mg oral dose of Compound A capsule containing a microtracer of [^14C]-Compound A solution in healthy male subjects (Part 1) and to evaluate the effect of a high-fat meal on the pharmacokinetics (PK) of Compound A following a single oral 20-mg dose of Compound A tablet (Part 2).
Part 2 design: Part 2 will be a 2-period crossover study; in Period 1, subjects (n=12) will be randomized to receive either an oral 20 mg dose of Compound A tablet (Treatment B) under fed (n=6) or fasted (n=6) conditions. In Period 2, subjects will receive Treatment B under converse conditions based on treatment assignment in Period 1. After screening, subjects (n=12) eligible for participation in the study will return to the study center on Day −1 for baseline assessments. Subjects who continue to be qualified for participation in the study will be randomized and enrolled in the study on the morning of Day 1. Subjects (n=6) will be enrolled and randomized to receive Treatment B under fed or fasted conditions on the morning of Day 1 after fasting for at least 8 hours. Fed subjects will be served a standard high fat meal breakfast, or its equivalent, that must be consumed within 30 minutes from serving. Dosing must occur 30 minutes (+5 minutes) after serving a subject breakfast. All subjects (fed and fasted) will fast (not to consume any food) until 4 hours post dose. Water will be allowed during the fasting period. Subjects will be domiciled at the study center from Day −1 until the morning of Day 5 of each period. Subjects will be discharged from the study center on the morning of Day 5 upon satisfactory safety review and completion of study-related procedures. Safety and tolerability data will be monitored and collected following each dosing period. Periods 1 and 2 will be separated by a washout period of at least 7 days (no more than 10 days) from prior dose to the next dose. In certain instances, a longer washout may be acceptable if previously agreed to.
Serial blood samples (10 mL) will be collected at predose (0 hour) and at 0.5, 1, 2, 3, 6, 12, 24, 48, 72 and 96 hours post dose for the determination of plasma concentrations of Compound A and the O-desmethyl metabolite of Compound A. Safety will be monitored throughout the study; safety evaluations will include AE reporting, physical examinations, vital sign measurements, ECG, and clinical laboratory safety tests. Concomitant medications will be assessed and recorded throughout the study as well. In addition, during the subjects' stay-in-the clinic (i.e., confinement period), fasting plasma glucose levels will be monitored as part of the clinical laboratory safety tests. For Parts 1 and 2, all subjects will return to the clinic within 7 to days after the last dose for follow up safety assessments. In the event that a subject discontinues prematurely from the study, every reasonable effort should be made (and documented) to ensure that all procedures and evaluations scheduled for the follow-up visit are performed at the time of discontinuation or a follow-up visit should be scheduled within 7 to days from the discontinuation day.
Part 2 dosing: In Part 2, subjects will fast overnight for at least 8 hours prior to Compound A administration. On the morning of Day 1, each subject will receive a 20-mg tablet of Compound A orally. Subjects randomized to receive Compound A under fed conditions will be a served a standard high fat meal (breakfast).
The standard high fat meal or its equivalent must be consumed within minutes of serving. Dosing must occur 30 minutes (+5 minutes) after serving the meal. The tablet will be administered with approximately 240 mL of non-carbonated, room temperature water. After dosing, subjects will continue to fast until 4 hours after dosing.

[2] = Pharmacokinetics of the metabolite produced in vivo after administration of 7.5-60 mg Compound A; details: human; for AUC(0-t): read-out: AUC0-24; for concentration at 15 day: read-out: Ctrough
Method: In certain embodiments, the pharmacokinetic parameters in connection with the metabolite of Compound A produced via administration of 7.5 mg, 15 mg, 30 mg, 45 mg and 60 mg of Compound A are obtained using the protocol set forth in Section 5.2.1 (paragraphs [00497]-[00520]) of U.S. provisional application No. 61/653,436, filed May 31, 2012, which is incorporated by reference herein in its entirety.
In certain embodiments, the pharmacokinetic parameters set forth herein are mean values obtained from multiple subjects.
In certain embodiments, the metabolite of Compound A is the O-desmethyl metabolite.

[3] = fed vs fasted, healthy adult males, 20 mg Compound A
[4] = po, Fasted (n = 11), single 20-mg oral dose of Compound A tablet
[5] = po, Fed (n = 11, high fat meal), single 20-mg oral dose of Compound A tablet
[6] = 7.5 mg, day 1 of administration of about 7.5 mg of Compound A
[7] = 7.5 mg, on day (number not given) of once a day administration of about 7.5 mg of Compound A
[8] = 15 mg, day 1 of administration of about 15 mg of Compound A
[9] = 15 mg, on day (number not given) of once a day administration of about 15 mg of Compound A
[10] = 30 mg, day 1 of administration of about 30 mg of Compound A
[11] = 30 mg, day 15 of once a day administration of about 30 mg of Compound A
[12] = 45 mg, day 1 of administration of about 45 mg of Compound A
[13] = 45 mg, day 15 of once a day administration of about 45 mg of Compound A
[14] = 60 mg, day 1 of administration of about 60 mg of Compound A
[15] = 60 mg, day 15 of once a day administration of about 60 mg of Compound A

CC(C)(O)c1ccc(-c2cnc3c(n2)N([C@H]2CC[C@H](O)CC2)C(=O)CN3)cn1 [O-Desmethyl metabolite, 1-((1r,4r)-4-hydroxycyclohexyl)-7-(6-(2-hydroxypropan-2-yl)pyridin-3-yl)-3,4-dihydropyrazino[2,3-b]pyrazin-2(1H)-one]
CL/F ([1]; Fasted (n = 11), single 20-mg oral dose of Compound A tablet): 2.0 L/h
CL/F ([1]; Fed (n = 11, high fat meal), single 20-mg oral dose of Compound A tablet): 2.0 L/h
decrease in Cmax with a high fat meal [1, 3]: ~17%
increase in overall exposure (AUCinf) with a high fat meal [1, 3]: ~3%
Tmax ([1]; oral, fed vs fasted, healthy adult males, 20 mg Compound A, read-out: delay in Tmax with a high fat meal): 3 h
Tmax ([1]; po, Fasted (n = 11), single 20-mg oral dose of Compound A tablet, healthy adult males, median, read-out: Tmax): 3 h
AUC(0-inf) [1, 4]: 9830 ng·h/mL
Cmax [1, 4]: 425 ng/mL
half-life [1, 4]: 14.8 h
AUC(0-t) [1, 4]: 6400 ng·h/mL
Vd/F [1, 4]: 34.7 L
AUC(0-inf) [1, 5]: 10100 ng·h/mL
Cmax [1, 5]: 364 ng/mL
half-life [1, 5]: 14.9 h
AUC(0-t) [1, 5]: 6270 ng·h/mL
Vd/F [1, 5]: 42.6 L
Tmax ([1]; po, Fed (n = 11, high fat meal), single 20-mg oral dose of Compound A tablet, median, read-out: Tmax): 6 h
AUC(0-inf) [2, 6]: 7950 ng·h/mL
Cmax [2, 6]: 143 ng/mL
Tmax [2, 6]: 8 h
half-life [2, 6]: 35 h
AUC(0-t) [2, 6]: 2740 ng·h/mL
AUC(0-inf) [2, 7]: 45600 ng·h/mL
Cmax [2, 7]: 363 ng/mL
Tmax [2, 7]: 2 h
AUC(0-t) [2, 7]: 6400 ng·h/mL
AUC(0-inf) [2, 8]: 5820 ng·h/mL
Cmax [2, 8]: 309 ng/mL
Tmax [2, 8]: 2 h
half-life [2, 8]: 12 h
AUC(0-t) [2, 8]: 3830 ng·h/mL
AUC(0-inf) [2, 9]: 9750 ng·h/mL
Cmax [2, 9]: 458 ng/mL
Tmax [2, 9]: 3 h
AUC(0-t) [2, 9]: 5680 ng·h/mL
AUC(0-inf) [2, 10]: 27700 ng·h/mL
Cmax [2, 10]: 776 ng/mL
Tmax [2, 10]: 7 h
half-life [2, 10]: 21 h
AUC(0-t) [2, 10]: 13300 ng·h/mL
AUC(0-inf) [2, 11]: 118000 ng·h/mL
Cmax [2, 11]: 1770 ng/mL
Tmax [2, 11]: 2 h
AUC(0-t) [2, 11]: 29400 ng·h/mL
AUC(0-inf) [2, 12]: 27300 ng·h/mL
Cmax [2, 12]: 1150 ng/mL
Tmax [2, 12]: 3 h
half-life [2, 12]: 17 h
AUC(0-t) [2, 12]: 15900 ng·h/mL
AUC(0-inf) [2, 13]: 77700 ng·h/mL
Cmax [2, 13]: 2240 ng/mL
Tmax [2, 13]: 2 h
AUC(0-t) [2, 13]: 32700 ng·h/mL
AUC(0-inf) [2, 14]: 37500 ng·h/mL
Cmax [2, 14]: 1440 ng/mL
Tmax [2, 14]: 4 to 6 h
half-life [2, 14]: 16 h
AUC(0-t) [2, 14]: 21500 ng·h/mL
AUC(0-inf) [2, 15]: 138000 ng·h/mL
Cmax [2, 15]: 2520 ng/mL
Tmax [2, 15]: 3 h
AUC(0-t) [2, 15]: 46900 ng·h/mL
concentration at 15 day ([2]; day 15 of once a day administration of about 30 mg of Compound A): 1100 ng/mL
concentration at 15 day ([2]; day 15 of once a day administration of about 45 mg of Compound A): 1180 ng/mL
concentration at 15 day ([2]; day 15 of once a day administration of about 60 mg of Compound A): 1470 ng/mL
